According to patent publication US11033539B2, “Compounds of formulas (VII), (VIII), (IX), (XI), (XII), (XIII), and (XIV) as muscarinic receptor 4(M4) antagonists for treating neurological diseases” (Neurocrine Biosciences, Inc., priority 2015, dated 2021):

Assays:
human M3 receptor = human M3 receptor (Homo sapiens (Human), UniProt P20309); test: Radioligand (tritiated N-methylscopolamine) binding assay, M3; settings: CHO cell membranes expressing human M3; 1.5 nM tritiated N-methylscopolamine; 90 min, 37° C.; read-out: Ki against M3 receptor (Table 21, M3)
Summary of the method: (§1)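 Compounds were tested at twelve concentrations ranging from 10 μM to […] against 1.5 nM radioligand on CHO cell membranes expressing each subtype. Incubation lasts 90 min at 37 °C in HEPES-buffered saline with Mg2+ and EDTA, pH 7.4, and filtration then separates bound radioligand.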

human M5 receptor = human M5 receptor (Homo sapiens (Human), UniProt P08912); test: Radioligand (tritiated N-methylscopolamine) binding assay, M5; settings: CHO cell membranes expressing human M5; 1.5 nM tritiated N-methylscopolamine; 90 min, 37° C.; read-out: Ki against M5 receptor (Table 21, M5)
Summary of the method: as §1

human M2 receptor = human M2 receptor (Homo sapiens (Human), UniProt P08172); test: Radioligand (tritiated N-methylscopolamine) binding assay, M2; settings: CHO cell membranes expressing human M2; 1.5 nM tritiated N-methylscopolamine; 90 min, 37° C.; read-out: Ki against M2 receptor (Table 21, M2)
Summary of the method: as §1

human M4 receptor = human M4 receptor (Homo sapiens (Human), UniProt P08173); test: Radioligand (tritiated N-methylscopolamine) binding assay, M4; settings: Ki against the M4 receptor; membranes from CHO cells expressing human M4; tritiated N-methylscopolamine 1.5 nM; read-out: Ki
Summary of the method: as §1

human M1 receptor = human M1 receptor (Homo sapiens (Human), UniProt P11229); test: Radioligand (tritiated N-methylscopolamine) binding assay, M1; settings: CHO cell membranes expressing human M1; 1.5 nM tritiated N-methylscopolamine; 90 min, 37° C.; read-out: Ki against M1 receptor (Table 21, M1)
Summary of the method: as §1

Sequence of human M4 receptor (P08173 whole entry): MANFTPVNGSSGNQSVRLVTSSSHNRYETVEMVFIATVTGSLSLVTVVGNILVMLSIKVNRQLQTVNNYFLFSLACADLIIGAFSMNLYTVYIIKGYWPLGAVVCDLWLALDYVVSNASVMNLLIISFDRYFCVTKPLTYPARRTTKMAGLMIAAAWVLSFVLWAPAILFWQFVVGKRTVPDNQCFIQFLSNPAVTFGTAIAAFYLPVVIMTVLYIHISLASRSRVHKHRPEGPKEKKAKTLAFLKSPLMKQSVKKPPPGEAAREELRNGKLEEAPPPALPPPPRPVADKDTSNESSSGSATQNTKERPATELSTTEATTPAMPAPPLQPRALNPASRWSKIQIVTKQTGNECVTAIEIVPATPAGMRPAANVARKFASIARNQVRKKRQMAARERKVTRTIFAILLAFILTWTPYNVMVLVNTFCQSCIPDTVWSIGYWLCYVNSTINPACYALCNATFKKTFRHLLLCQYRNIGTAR
Sequence of human M3 receptor (P20309 whole entry): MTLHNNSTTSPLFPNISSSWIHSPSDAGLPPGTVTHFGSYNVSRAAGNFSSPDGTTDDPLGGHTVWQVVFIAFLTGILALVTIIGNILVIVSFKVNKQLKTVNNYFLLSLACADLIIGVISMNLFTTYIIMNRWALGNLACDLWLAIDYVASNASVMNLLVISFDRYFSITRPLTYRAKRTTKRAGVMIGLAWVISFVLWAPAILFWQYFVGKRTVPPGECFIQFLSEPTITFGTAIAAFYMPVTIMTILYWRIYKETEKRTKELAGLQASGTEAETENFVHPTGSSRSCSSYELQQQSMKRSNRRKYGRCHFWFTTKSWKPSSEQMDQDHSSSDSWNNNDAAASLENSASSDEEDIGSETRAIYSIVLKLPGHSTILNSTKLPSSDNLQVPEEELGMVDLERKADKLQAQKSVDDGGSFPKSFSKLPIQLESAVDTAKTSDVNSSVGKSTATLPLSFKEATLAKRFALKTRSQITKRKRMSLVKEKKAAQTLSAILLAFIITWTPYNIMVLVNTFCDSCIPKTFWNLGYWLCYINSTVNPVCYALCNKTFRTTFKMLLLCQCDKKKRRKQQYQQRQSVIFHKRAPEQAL
Sequence of human M1 receptor (P11229 whole entry): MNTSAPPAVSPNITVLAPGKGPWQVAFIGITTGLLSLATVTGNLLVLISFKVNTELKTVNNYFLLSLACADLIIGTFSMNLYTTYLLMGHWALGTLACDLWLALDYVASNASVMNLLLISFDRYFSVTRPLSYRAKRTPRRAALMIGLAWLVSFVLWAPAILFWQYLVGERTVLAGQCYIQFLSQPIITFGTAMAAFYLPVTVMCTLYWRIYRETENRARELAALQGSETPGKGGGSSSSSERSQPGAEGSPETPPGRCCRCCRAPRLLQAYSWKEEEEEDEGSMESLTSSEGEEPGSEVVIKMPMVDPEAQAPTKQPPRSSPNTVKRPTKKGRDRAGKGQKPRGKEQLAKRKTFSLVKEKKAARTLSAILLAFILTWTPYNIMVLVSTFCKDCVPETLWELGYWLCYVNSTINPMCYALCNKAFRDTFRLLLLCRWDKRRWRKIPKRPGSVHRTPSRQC
Sequence of human M5 receptor (P08912 whole entry): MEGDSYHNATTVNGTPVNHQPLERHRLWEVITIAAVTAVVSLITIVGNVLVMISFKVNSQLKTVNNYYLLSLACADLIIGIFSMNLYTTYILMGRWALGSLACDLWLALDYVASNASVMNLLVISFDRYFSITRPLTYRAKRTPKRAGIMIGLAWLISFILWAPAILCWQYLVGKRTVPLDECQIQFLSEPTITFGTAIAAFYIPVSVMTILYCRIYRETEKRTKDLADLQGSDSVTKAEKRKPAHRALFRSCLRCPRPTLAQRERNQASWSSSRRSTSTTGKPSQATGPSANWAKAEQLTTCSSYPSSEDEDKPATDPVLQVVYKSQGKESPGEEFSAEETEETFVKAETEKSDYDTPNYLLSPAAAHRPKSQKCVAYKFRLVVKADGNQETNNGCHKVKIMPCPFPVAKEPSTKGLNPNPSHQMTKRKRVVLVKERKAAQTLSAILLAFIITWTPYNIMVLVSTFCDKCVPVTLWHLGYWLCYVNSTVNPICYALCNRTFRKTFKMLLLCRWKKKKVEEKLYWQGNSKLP
Sequence of human M2 receptor (P08172 whole entry): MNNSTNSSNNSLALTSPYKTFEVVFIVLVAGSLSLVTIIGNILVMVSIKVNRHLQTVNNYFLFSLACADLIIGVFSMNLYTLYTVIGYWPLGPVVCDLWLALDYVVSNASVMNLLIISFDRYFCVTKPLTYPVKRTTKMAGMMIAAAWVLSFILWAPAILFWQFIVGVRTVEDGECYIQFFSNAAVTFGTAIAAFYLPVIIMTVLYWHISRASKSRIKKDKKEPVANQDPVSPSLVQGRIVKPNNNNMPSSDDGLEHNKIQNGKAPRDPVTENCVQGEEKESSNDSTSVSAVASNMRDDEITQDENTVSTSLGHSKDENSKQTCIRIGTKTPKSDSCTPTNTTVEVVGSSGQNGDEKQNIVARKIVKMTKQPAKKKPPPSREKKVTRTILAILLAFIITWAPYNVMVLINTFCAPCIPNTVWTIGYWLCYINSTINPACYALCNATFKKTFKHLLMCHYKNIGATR

Structure (SMILES) | Ki (human M3 receptor) [nM] | Ki (human M5 receptor) [nM] | Ki (human M2 receptor) [nM] | Ki (human M4 receptor) [nM] | Ki (human M1 receptor) [nM]
Cc1c(C(=O)NC[C@@H](O)C2CCN(Cc3ccccc3)CC2)cnc2cc(-c3cccc(C(F)(F)F)c3)nn12 [17-5, N-[(2S)-2-(1-benzylpiperidin-4-yl)-2-hydroxyethyl]-7-methyl-2-[3-(trifluoromethyl)phenyl]pyrazolo[1,5-a]pyrimidine-6-carboxamide] | > 1000 | > 1000 | 10 to 100 | < 10 | 100 to 1000
O=C(NCCC1CCN(Cc2ccccc2)CC1)C1CCN(c2ccc(C(F)(F)F)cc2)CC1 [10-9, N-[2-(1-benzylpiperidin-4-yl)ethyl]-1-[4-(trifluoromethyl)phenyl]piperidine-4-carboxamide] | > 1000 | > 1000 | 100 to 1000 | < 10 | > 1000
C[C@@H]1CN(c2ccc(OC(F)(F)F)c(C#N)c2)CCN1C(=O)NCCC1CCN(Cc2ccccc2)CC1 [3-1, (2R)-N-[2-(1-benzylpiperidin-4-yl)ethyl]-4-[3-cyano-4-(trifluoromethoxy)phenyl]-2-methylpiperazine-1-carboxamide] | > 1000 | > 1000 | 10 to 100 | < 10 | 100 to 1000
C[C@@H]1CN(c2ncc(C#N)cn2)C[C@@H](C)N1C(=O)NCCC1CCN(Cc2ccccc2)CC1 [26-2] | > 1000 | > 1000 | 100 to 1000 | < 10 | > 1000
CNc1nc(N2CCN(C(=O)NCCC3CCN(Cc4ccccc4)CC3)[C@H](C)C2)ncc1C#N [5-23, (2R)-N-[2-(1-benzylpiperidin-4-yl)ethyl]-4-[5-cyano-4-(methylamino)pyrimidin-2-yl]-2-methylpiperazine-1-carboxamide] | > 1000 | > 1000 | 10 to 100 | < 10 | 100 to 1000
COc1nc(N2C[C@@H](C)N(C(=O)NCCC3CCN(Cc4ccccc4)CC3)[C@@H](C)C2)ncc1C#N [5-17, (2R,6S)-N-[2-(1-benzylpiperidin-4-yl)ethyl]-4-(5-cyano-4-methoxypyrimidin-2-yl)-2,6-dimethylpiperazine-1-carboxamide] | 100 to 1000 | > 1000 | 100 to 1000 | < 10 | 100 to 1000
C[C@@H]1CN(c2ccc(F)c(C#N)c2)CCN1C(=O)NC[C@@H](O)C1CCN(Cc2ccccc2)CC1 [3-18, (2R)-N-[(2S)-2-(1-benzylpiperidin-4-yl)-2-hydroxyethyl]-4-(3-cyano-4-fluorophenyl)-2-methylpiperazine-1-carboxamide] | > 1000 | > 1000 | > 1000 | < 10 | > 1000
C[C@@H]1CN(c2cnc(C(F)(F)F)cn2)C[C@H](C)N1C(=O)NCCC1CCN(Cc2ccccc2)CC1 [22-23] | 100 to 1000 | 100 to 1000 | < 10 | < 10 | 100 to 1000
Cc1c(C(=O)NCCC2(O)CCN(Cc3ccccc3)CC2)cnc2cc(-c3cccc(C(F)(F)F)c3)nn12 [17-3, N-[2-(1-benzyl-4-hydroxypiperidin-4-yl)ethyl]-7-methyl-2-[3-(trifluoromethyl)phenyl]pyrazolo[1,5-a]pyrimidine-6-carboxamide] | > 1000 | > 1000 | 100 to 1000 | < 10 | 100 to 1000
N#Cc1cc(N2CCC(C(=O)NCCC3CCN(Cc4ccccc4)CC3)CC2)ccc1OC(F)(F)F [10-57, N-[2-(1-benzylpiperidin-4-yl)ethyl]-1-[3-cyano-4-(trifluoromethoxy)phenyl]piperidine-4-carboxamide] | > 1000 | > 1000 | 10 to 100 | < 10 | 100 to 1000
C[C@@H]1CN(c2cc(F)c(F)c(Cl)c2)C[C@H](C)N1C(=O)NCCC1CCN(Cc2ccccc2)CC1 [22-7] | 100 to 1000 | 100 to 1000 | 10 to 100 | < 10 | 100 to 1000
